Assay results from ChEMBL document CHEMBL3044753, “Polyamines May Modulate Both G Protein-Coupled Receptors and G Proteins” (Med Chem Res, 2004).
Active and inactive are the calls of the source. The rule behind the calls is not given here.

Key:
Right cardiac atrium [1] = assay: Negative ionotropic activity in electrically-paced Cavia porcellus (guinea pig) right atrium measured after 60 min by isometric transducer analysis in presence of ANR 83; format: functional, tissue-based
Left cardiac atrium [2] = assay: Negative ionotropic activity in electrically-paced Cavia porcellus (guinea pig) left atrium measured after 60 min by isometric transducer analysis in presence of AM 251; format: functional, tissue-based
[3] = target: Muscarinic acetylcholine receptor M3 (Homo sapiens) (UniProt P20309); assay: Allosteric modulation of Homo sapiens (human) recombinant muscarinic M3 receptor expressed in CHO cells assessed as inhibition of carbachol-induced [35S]GTPgammaS binding; format: functional, cell-based
Left cardiac atrium [4] = assay: Negative ionotropic activity in electrically-paced Cavia porcellus (guinea pig) left atrium measured after 60 min by isometric transducer analysis in presence of DPCPX; format: functional, tissue-based
Left cardiac atrium [5] = assay: Negative ionotropic activity in electrically-paced Cavia porcellus (guinea pig) left atrium measured after 60 min by isometric transducer analysis in presence of dihydroergocristine; format: functional, tissue-based
Left cardiac atrium [6] = assay: Negative ionotropic activity in electrically-paced Cavia porcellus (guinea pig) left atrium measured after 60 min by isometric transducer analysis in absence of benextramine/4-DAMP mustard; format: functional, tissue-based; conditions: 1 h
Left cardiac atrium [7] = assay: Negative ionotropic activity in electrically-paced Cavia porcellus (guinea pig) left atrium measured after 60 min by isometric transducer analysis in presence of bupranolol; format: functional, tissue-based
Right cardiac atrium [8] = assay: Negative ionotropic activity in electrically-paced Cavia porcellus (guinea pig) right atrium measured after 60 min by isometric transducer analysis in presence of benzalkonium; format: functional, tissue-based
Right cardiac atrium [9] = assay: Negative ionotropic activity in electrically-paced Cavia porcellus (guinea pig) right atrium measured after 60 min by isometric transducer analysis in presence of naloxane; format: functional, tissue-based
Right cardiac atrium [10] = assay: Negative […] activity in electrically-paced Cavia porcellus (guinea pig) right atrium measured after 60 min by isometric transducer analysis in presence of thioperamide; format: functional, tissue-based
Right cardiac atrium [11] = assay: Negative ionotropic activity in electrically-paced Cavia porcellus (guinea pig) right atrium measured after 60 min by isometric transducer analysis in presence of AM 630; format: functional, tissue-based
[12] = target: T1, Muscarinic acetylcholine receptor M2 (Homo sapiens) (UniProt P08172); assay: Binding affinity to Homo sapiens (human) recombinant muscarinic M2 receptor expressed in CHO cells assessed as [35S]GTPgammaS binding; format: functional, cell-based
T1 sequence (whole entry): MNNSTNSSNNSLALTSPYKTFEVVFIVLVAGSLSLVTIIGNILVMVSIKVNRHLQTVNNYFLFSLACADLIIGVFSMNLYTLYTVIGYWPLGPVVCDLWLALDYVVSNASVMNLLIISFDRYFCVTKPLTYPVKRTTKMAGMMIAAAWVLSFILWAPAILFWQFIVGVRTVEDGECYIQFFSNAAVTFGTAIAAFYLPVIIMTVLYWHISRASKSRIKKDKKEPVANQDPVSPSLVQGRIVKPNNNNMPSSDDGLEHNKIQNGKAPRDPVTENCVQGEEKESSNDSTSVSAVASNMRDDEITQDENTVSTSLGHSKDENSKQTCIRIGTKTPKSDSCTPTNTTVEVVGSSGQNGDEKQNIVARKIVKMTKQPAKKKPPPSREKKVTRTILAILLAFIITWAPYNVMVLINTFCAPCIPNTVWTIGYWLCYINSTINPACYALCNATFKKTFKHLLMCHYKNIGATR

Right cardiac atrium [13] = assay: Negative […] activity in electrically-paced Cavia porcellus (guinea pig) right atrium assessed as effect on force measured after 60 min by isometric transducer analysis in presence of benextramine/4-DAMP mustard; format: functional, tissue-based; conditions: 1 h
Right cardiac atrium [14] = assay: Reversible negative ionotropic activity in electrically-paced Cavia porcellus (guinea pig) right atrium incubated for 30 min followed by compound-washout measured after 3 hr by isometric transducer analysis; format: functional, tissue-based
Right cardiac atrium [15] = assay: Negative […] activity in electrically-paced Cavia porcellus (guinea pig) right atrium assessed as effect on force measured after 60 min by isometric transducer analysis in presence of benextramine/4-DAMP mustard relative to N-dodecyl lysine amide; format: functional
Left cardiac atrium [16] = assay: Negative ionotropic activity in electrically-paced Cavia porcellus (guinea pig) left atrium measured after 60 min by isometric transducer analysis in presence of naloxane; format: functional, tissue-based
Left cardiac atrium [17] = assay: Negative ionotropic activity in electrically-paced Cavia porcellus (guinea pig) left atrium measured after 60 min by isometric transducer analysis in presence of benextramine/4-DAMP mustard; format: functional, tissue-based; conditions: 1 h
[18] = target: T2, Muscarinic acetylcholine receptor M5 (Homo sapiens) (UniProt P08912); assay: Allosteric modulation of Homo sapiens (human) recombinant muscarinic M5 receptor expressed in CHO cells assessed as inhibition of carbachol-induced [35S]GTPgammaS binding; format: functional, cell-based
T2 sequence (whole entry): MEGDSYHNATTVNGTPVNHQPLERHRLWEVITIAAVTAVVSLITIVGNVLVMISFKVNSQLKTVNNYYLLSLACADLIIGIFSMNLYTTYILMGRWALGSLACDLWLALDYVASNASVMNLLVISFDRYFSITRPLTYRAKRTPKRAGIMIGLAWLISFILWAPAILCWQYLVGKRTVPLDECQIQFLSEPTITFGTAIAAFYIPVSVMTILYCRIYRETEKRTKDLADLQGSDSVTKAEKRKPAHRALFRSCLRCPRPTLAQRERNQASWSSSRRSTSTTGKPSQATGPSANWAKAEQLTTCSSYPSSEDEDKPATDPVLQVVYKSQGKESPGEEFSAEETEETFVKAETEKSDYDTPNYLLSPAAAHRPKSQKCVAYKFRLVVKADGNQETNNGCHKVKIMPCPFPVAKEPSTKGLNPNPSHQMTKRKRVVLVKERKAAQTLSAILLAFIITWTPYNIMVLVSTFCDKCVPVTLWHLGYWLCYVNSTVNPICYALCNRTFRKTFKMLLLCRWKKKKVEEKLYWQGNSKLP

Left cardiac atrium [19] = assay: Negative ionotropic activity in electrically-paced Cavia porcellus (guinea pig) left atrium measured after 60 min by isometric transducer analysis in presence of benzalkonium; format: functional, tissue-based
Right cardiac atrium [20] = assay: Negative ionotropic activity in electrically-paced Cavia porcellus (guinea pig) right atrium measured after 60 min by isometric transducer analysis in presence of dihydroergocristine; format: functional, tissue-based
Left cardiac atrium [21] = assay: Negative ionotropic activity in electrically-paced Cavia porcellus (guinea pig) left atrium measured after 60 min by isometric transducer analysis in absence of benextramine/4-DAMP mustard relative to N-dodecyl lysine amide; format: functional
Right cardiac atrium [22] = assay: Negative […] activity in electrically-paced Cavia porcellus (guinea pig) right atrium assessed as effect on force measured after 60 min by isometric transducer analysis in absence of benextramine/4-DAMP mustard; format: functional, tissue-based; conditions: 1 h
Left cardiac atrium [23] = assay: Negative ionotropic activity in electrically-paced Cavia porcellus (guinea pig) left atrium measured after 60 min by isometric transducer analysis in presence of benextramine/4-DAMP mustard relative to N-dodecyl lysine amide; format: functional

Chain of Muscarinic acetylcholine receptor M3 (Homo sapiens) (P20309 whole entry, looked up): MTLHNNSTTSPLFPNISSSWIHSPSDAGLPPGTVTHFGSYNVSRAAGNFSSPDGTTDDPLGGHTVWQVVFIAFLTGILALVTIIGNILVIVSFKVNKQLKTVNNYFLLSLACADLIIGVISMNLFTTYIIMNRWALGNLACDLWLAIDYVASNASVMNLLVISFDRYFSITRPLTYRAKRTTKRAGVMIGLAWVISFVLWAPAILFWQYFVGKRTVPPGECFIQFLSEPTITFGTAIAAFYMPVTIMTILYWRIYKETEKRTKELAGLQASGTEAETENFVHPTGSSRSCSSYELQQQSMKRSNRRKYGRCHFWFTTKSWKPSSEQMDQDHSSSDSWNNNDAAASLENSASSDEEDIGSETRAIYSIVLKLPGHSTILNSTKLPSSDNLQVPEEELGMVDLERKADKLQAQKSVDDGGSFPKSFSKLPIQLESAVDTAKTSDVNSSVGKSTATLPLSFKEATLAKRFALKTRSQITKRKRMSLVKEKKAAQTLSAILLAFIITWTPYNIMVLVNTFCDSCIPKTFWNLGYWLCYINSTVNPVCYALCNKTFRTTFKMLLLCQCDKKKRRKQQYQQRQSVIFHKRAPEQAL

SMILES | Activity (Right cardiac atrium [1]) | Activity (Left cardiac atrium [2]) | Activity [3] | Activity (Left cardiac atrium [4]) | Activity (Left cardiac atrium [5]) | EC50 (Left cardiac atrium [6]) [nM] | Activity (Left cardiac atrium [7]) | Activity (Right cardiac atrium [8]) | Activity (Right cardiac atrium [9]) | Activity (Right cardiac atrium [10]) | Activity (Right cardiac atrium [11]) | Activity [12] | EC50 (Right cardiac atrium [13]) [nM] | Activity (Right cardiac atrium [14]) | Efficacy (Right cardiac atrium [15]) [%] | Activity (Left cardiac atrium [16]) | EC50 (Left cardiac atrium [17]) [nM] | Activity [18] | Activity (Left cardiac atrium [19]) | Activity (Right cardiac atrium [20]) | other results
COc1ccccc1CN1CCC(C2CCN(C(=O)CCCCCCC(=O)N3CCC(C4CCN(Cc5ccccc5OC)CC4)CC3)CC2)CC1 [PIPERTRAMINE AMIDE] | Active | Active | Active | Active | Active | 3.09 | Active | inactive | Active | Active | Active | inactive | 3.16 | inactive | 82 | Active | 0.589 | Active | inactive | Active | Efficacy (Left cardiac atrium [21]): 90%; EC50 (Right cardiac atrium [22]): 3.89 nM; Efficacy (Left cardiac atrium [23]): 85%
COc1ccccc1CN1CCC(C2CCN(CCCCCCCCN3CCC(C4CCN(Cc5ccccc5OC)CC4)CC3)CC2)CC1 [PIPERTRAMINE] | Active | Active | Active | Active | Active | 0.2 | Active | inactive | Active | Active | Active | inactive | 0.263 | inactive | 72 | Active | 0.331 | Active | inactive | Active | Efficacy (Left cardiac atrium [21]): 96%; EC50 (Right cardiac atrium [22]): 0.275 nM; Efficacy (Left cardiac atrium [23]): 96%
